We go through two molecules from US8124831B2, “Transgenic mice carrying functional single nucleotide polymorphisms in brain-specific tryptophan hydroxylase” (Duke University, priority 2006, dated 2012).

The experiment has as its system R439H Tph2 knock-in mice. Kind of experiment: Tail suspension test after drug administration. The format is in vivo, mouse. To be noted: HO Tph2 knock-in mice; 30 min following administration; fluoxetine 5 mg/kg, TDZD 10 mg/kg (i.p.); vs vehicle (FIG. 7). As for the experimental part: Tail suspension test: Mice were tested in a tail suspension apparatus (Med-Associates, St. Albans, Vt.) as described (Crowley et al., 2004, Pharmacol. Biochem. Behav. 78:269-274). All mice were weighed and tail-marked 24 hrs before testing. Animals were brought into the testing room 4 hrs before injections. Pilot studies were used to determine the optimal automated threshold settings for immobility by comparing scores rated manually with scores tabulated simultaneously by the apparatus. Behavior was scored as time spent in immobility (sec) for the total period of the test.
Administration of anti-depressants or glycogen synthase kinase 3 inhibitors alleviates behavioral differences. Fluoxetine (Tocris Cookson Inc., Ellisville, Mo.) was dissolved in distilled water. Thiadiazolidinone (TDZD) (Calbiochem, Cambridge, Mass.) was injected (i.p.) following suspension in a minimal amount of Tween and diluted to volume with distilled water as previously described (Beaulieu et al., 2004, Proc. Natl Acad. Sci. USA 101:5099-5104). Corresponding vehicle solutions were injected in control animals. Mice were treated with vehicle or drug 30 min before testing. Behavioral testing was performed as described above.

Regarding `Cn1sc(=O)n(Cc2ccccc2)c1=O` [TDZD, thiadiazolidinone], the “immobility times in the tail suspension test” value is reported as “comparable reduction of immobility times”.

Consider `CNCCC(Oc1ccc(C(F)(F)F)cc1)c1ccccc1` (centres unmarked) [fluoxetine], for which the “immobility times in the tail suspension test” value is listed as “comparable reduction of immobility times”.
